Data published in patent US20250197372A1 (priority 2020, published 2025).
pIC50: −log10 of the molar value.

Tests used:
Assay type in all cases: biochemical
[1] = target: T1, recombinant human GBA (beta-glucocerebrosidase) (Homo sapiens, UniProt P04062); experiment: Beta-glucocerebrosidase (GBA, glucosylceramidase) assay (4-methylumbelliferyl-beta-D-pyranoside substrate, fluorescence)
T1 sequence (P04062 40-536): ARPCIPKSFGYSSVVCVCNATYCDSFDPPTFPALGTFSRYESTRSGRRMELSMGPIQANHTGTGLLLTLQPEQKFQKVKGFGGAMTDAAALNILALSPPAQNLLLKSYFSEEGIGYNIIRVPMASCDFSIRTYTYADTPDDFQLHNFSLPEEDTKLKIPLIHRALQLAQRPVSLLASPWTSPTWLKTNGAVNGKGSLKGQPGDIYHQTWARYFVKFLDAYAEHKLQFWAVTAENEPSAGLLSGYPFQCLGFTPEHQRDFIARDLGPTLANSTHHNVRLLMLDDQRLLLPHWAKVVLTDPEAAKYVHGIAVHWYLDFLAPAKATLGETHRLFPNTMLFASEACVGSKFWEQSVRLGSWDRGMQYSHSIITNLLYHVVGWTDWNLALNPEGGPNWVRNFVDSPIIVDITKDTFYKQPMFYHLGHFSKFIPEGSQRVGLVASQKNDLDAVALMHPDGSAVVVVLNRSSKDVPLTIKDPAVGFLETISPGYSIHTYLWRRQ
Outline: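 IC50 by four-parameter fit of percent inhibition, with product fluorescence (365/440 nm) read after a glycine/NaOH pH 10 stop. Compound and commercial recombinant human enzyme were incubated 60 min at 37 °C before a further 60 min at 37 °C with 4-methylumbelliferyl-beta-D-pyranoside substrate.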

[2] = target: rat maltase (partially purified alpha-glucosidase from intestinal rat powder); experiment: Intestinal alpha-glucosidase assay, maltose substrate (Glucose GO Kit)
Outline: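 Rat intestinal enzyme prep + test cpd dilutions, 60 min 37 °C; add maltose (maltase) or sucrose (sucrase), 30 min 37 °C; stop 90 °C 5 min. Glucose readout (glucose oxidase kit). IC50 from 4-PL fit of % inhibition vs conc.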

[3] = target: rat sucrase (partially purified alpha-glucosidase from intestinal rat powder) (Rattus norvegicus, UniProt P23739); experiment: Intestinal alpha-glucosidase assay, sucrose substrate (Glucose GO Kit)
Sequence of rat sucrase (partially purified alpha-glucosidase from intestinal rat powder) (P23739 whole entry): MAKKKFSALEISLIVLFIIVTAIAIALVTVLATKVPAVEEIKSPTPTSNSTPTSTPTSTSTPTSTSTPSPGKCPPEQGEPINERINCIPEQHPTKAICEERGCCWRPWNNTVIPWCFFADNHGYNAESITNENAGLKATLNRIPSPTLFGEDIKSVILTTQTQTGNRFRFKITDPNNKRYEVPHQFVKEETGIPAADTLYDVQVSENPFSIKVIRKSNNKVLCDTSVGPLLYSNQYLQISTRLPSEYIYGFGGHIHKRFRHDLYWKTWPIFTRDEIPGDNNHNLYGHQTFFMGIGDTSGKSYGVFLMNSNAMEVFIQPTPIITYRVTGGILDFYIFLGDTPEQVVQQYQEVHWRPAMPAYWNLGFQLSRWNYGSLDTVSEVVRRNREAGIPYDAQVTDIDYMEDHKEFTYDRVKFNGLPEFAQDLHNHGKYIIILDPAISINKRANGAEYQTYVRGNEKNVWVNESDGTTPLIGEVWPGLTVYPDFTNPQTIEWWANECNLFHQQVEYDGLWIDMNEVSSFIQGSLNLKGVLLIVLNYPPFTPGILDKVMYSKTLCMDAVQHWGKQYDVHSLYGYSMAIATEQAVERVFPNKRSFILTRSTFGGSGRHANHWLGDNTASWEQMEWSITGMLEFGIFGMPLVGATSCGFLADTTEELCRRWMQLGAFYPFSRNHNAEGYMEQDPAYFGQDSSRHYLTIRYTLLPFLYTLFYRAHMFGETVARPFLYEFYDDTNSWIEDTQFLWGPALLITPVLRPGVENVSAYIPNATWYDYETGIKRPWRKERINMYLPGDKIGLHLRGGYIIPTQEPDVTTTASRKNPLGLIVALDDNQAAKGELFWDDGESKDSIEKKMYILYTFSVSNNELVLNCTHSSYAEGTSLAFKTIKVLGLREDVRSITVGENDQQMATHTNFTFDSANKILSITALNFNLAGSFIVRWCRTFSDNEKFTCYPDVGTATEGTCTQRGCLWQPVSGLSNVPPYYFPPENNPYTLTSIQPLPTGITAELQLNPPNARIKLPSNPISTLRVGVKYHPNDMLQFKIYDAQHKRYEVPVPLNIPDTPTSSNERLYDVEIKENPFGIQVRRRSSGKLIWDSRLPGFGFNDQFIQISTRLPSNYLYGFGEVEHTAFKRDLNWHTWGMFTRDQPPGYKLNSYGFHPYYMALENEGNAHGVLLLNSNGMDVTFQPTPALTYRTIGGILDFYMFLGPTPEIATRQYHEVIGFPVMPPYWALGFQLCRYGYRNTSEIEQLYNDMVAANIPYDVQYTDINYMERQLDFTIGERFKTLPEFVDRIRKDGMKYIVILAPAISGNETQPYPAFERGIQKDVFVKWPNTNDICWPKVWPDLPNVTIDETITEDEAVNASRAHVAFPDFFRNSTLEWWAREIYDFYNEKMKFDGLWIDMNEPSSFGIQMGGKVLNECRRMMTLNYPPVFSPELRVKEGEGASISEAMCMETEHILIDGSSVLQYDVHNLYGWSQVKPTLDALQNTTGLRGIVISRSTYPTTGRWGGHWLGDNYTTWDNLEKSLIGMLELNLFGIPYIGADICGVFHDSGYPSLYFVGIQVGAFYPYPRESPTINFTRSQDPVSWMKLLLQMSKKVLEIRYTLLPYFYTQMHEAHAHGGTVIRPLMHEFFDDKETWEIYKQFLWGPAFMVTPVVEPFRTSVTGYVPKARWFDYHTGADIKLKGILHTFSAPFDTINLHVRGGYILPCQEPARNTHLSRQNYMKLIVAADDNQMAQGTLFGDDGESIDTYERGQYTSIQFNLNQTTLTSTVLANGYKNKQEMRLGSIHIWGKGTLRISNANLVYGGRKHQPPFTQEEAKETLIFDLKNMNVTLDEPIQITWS
Outline: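 First step: 60 min, 37 °C, compound with partially purified rat intestinal alpha-glucosidase. Next, maltose or sucrose for 30 min at 37 °C, ended at 90 °C for 5 min. Glucose quantified enzymatically; concentration–inhibition data fitted 4-PL for IC50.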

[4] = target: recombinant human GAA (acid alpha-glucosidase) (Homo sapiens, UniProt P10253); experiment: Acid alpha-glucosidase (GAA) assay (4-methylumbelliferyl-alpha-D-pyranoside substrate, fluorescence)
Outline: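 IC50 from 4-PL curve fit of percent inhibition, based on fluorescence (365/440 nm) of released methylumbelliferone relative to uninhibited enzyme. Compound dilutions and human GAA incubated 60 min, 37 °C, before 20 min substrate reaction at 37 °C, quenched at pH 10.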

[5] = target: T2, recombinant alpha-glucosidase II (murine full-length glucosidase II, alpha and beta subunits, Glu 2) (Mus musculus, UniProt Q8BHN3); experiment: Alpha-glucosidase II assay (4-methylumbelliferyl-alpha-D-pyranoside substrate, fluorescence); conditions: Glucosidase 2; read-out: Glu2 IC50
T2 construct: made in house; host or cells: HEK-293T cells transduced with BacMam viruses (75% alpha, 25% beta); protein harvested from culture supernatant
T2 sequence (O08795 15-521): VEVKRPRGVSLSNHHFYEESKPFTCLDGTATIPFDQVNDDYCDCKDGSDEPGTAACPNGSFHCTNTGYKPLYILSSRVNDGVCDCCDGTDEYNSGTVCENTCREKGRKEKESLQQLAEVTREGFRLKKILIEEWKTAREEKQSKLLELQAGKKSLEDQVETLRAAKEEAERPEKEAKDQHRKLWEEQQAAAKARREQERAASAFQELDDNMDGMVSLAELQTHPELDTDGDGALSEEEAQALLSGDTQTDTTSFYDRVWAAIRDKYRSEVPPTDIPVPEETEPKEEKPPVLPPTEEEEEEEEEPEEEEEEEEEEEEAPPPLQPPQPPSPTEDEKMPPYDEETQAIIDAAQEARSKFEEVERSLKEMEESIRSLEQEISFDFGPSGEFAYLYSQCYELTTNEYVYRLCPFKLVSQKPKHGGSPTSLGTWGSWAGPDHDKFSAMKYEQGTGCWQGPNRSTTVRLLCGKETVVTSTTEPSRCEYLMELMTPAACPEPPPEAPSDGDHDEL
T2 sequence (Q8BHN3 33-944): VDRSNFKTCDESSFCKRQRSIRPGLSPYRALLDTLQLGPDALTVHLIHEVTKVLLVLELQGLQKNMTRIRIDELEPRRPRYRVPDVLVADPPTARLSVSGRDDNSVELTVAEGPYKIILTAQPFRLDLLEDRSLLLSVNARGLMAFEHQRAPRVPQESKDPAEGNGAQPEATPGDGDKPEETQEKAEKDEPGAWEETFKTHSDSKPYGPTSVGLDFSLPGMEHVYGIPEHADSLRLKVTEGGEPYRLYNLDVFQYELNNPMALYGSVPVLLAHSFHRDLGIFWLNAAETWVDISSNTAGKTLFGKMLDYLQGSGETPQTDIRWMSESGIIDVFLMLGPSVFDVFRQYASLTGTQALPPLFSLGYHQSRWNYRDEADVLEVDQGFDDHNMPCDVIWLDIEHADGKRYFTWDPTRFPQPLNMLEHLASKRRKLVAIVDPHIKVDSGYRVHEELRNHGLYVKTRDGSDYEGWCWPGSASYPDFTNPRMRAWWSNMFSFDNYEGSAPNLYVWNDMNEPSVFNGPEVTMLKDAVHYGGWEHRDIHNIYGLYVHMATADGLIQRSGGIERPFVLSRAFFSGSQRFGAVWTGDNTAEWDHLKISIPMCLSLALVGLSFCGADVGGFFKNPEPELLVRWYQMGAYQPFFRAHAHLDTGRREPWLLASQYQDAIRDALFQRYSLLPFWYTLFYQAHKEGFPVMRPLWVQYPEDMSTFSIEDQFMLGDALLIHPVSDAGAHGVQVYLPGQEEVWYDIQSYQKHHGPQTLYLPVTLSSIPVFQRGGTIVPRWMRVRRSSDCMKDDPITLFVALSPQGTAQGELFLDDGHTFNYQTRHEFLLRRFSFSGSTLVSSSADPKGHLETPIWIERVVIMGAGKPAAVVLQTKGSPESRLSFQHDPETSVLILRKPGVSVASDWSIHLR

Structure (SMILES)	pIC50 [1]	pIC50 [2]	pIC50 [3]	pIC50 [4]	pIC50 [5]
OC[C@@H]1[C@@H](O)[C@H](O)[C@@H](O)CN1Cc1cccc(CNc2ccc(N3CCOCC3)cc2)c1 [Compound 1081, (2R,3R,4R,5S)-2-(hydroxymethyl)-1-{[3-({[4-(morpholin-4-yl)phenyl]amino}methyl)phenyl]methyl}piperidine-3,4,5-triol]	< 4.00	6.96	6.79	5.89	4.15
O=C(O)c1cc(NCCCCCCN2C[C@H](O)[C@@H](O)[C@H](O)[C@H]2CO)cc(-c2ncccn2)c1 [Compound 1118, 3-(pyrimidin-2-yl)-5-({6-[(2R,3R,4R,5S)-3,4,5-trihydroxy-2-(hydroxymethyl)piperidin-1-yl]hexyl}amino) benzoic acid]	5.61	8.40	7.24	7.57	8.30
OC[C@@H]1[C@@H](O)[C@H](O)[C@@H](O)CN1Cc1cccc(CNc2ccc(C3=COCCO3)cc2)c1 [Compound 1066, (2R,3R,4R,5S)-1-{[3-({[4-(5,6-dihydro-1,4-dioxin-2-yl)phenyl]amino}methyl)phenyl]methyl}-2-(hydroxymethyl)piperidine-3,4,5-triol]	< 4.00	7.39	7.59	5.98	5.47
O=[N+]([O-])c1cc(-c2ccc[nH]2)ccc1NCc1cccc(CN2C[C@H](O)[C@@H](O)[C@H](O)[C@H]2CO)c1 [Compound 1088, (2R,3R,4R,5S)-2-(hydroxymethyl)-1-{[3-({[2-nitro-4-(1H-pyrrol-2-yl)phenyl]amino}methyl)phenyl]methyl}piperidine-3,4,5-triol]	4.16	> 9.00	> 9.00	5.71	5.20
O=[N+]([O-])c1cc(CN2CCCO2)ccc1NCc1cccc(CN2C[C@H](O)[C@@H](O)[C@H](O)[C@H]2CO)c1 [Compound 1086]	< 4.00	6.91	7.12	6.01	4.35
O=[N+]([O-])c1cc(N2CCOCC2)ccc1NCc1ccc(CN2C[C@@H](O)[C@H](O)[C@@H](O)[C@@H]2CO)cc1 (stereo in doubt) [Compound 1069, (2S,3S,4S,5R)-2-(hydroxymethyl)-1-{[4-({[4-(morpholin-4-yl)-2-nitrophenyl]amino}methyl)phenyl]methyl}piperidine-3,4,5-triol]	5.51	> 9.00	8.10	7.17	8.40
CC(C)c1cc(CCNc2ccc(N=[N+]=[N-])cc2[N+](=O)[O-])cc(CCN2C[C@H](O)[C@@H](O)[C@H](O)[C@H]2CO)c1 [Compound 1077, (2R,3R,4R,5S)-1-[2-(3-{2-[(4-azido-2-nitrophenyl)amino]ethyl}-5-(propan-2-yl)phenyl)ethyl]-2-(hydroxymethyl)piperidine-3,4,5-triol]	6.42	5.18	5.09	5.00	6.69
Cc1cc(NCc2ccc(CN3C[C@H](O)[C@@H](O)[C@H](O)[C@H]3CO)cc2)cc(-c2ncccn2)c1 [Compound 1053, (2R,3R,4R,5S)-2-(hydroxymethyl)-1-{[4-({[3-methyl-5-(pyrimidin-2-yl)phenyl]amino}methyl)phenyl]methyl}piperidine-3,4,5-triol]	< 4.00	8.70	7.64	6.93	6.86
O=[N+]([O-])c1cc(-c2ncccn2)ccc1NCc1ccc(CN2C[C@H](O)[C@@H](O)[C@H](O)[C@H]2CO)cc1 [Compound 1102, (2R,3R,4R,5S)-2-(hydroxymethyl)-1-{[4-({[2-nitro-4-(pyrimidin-2-yl)phenyl]amino}methyl)phenyl]methyl}piperidine-3,4,5-triol]	4.54	> 9.00	> 9.00	7.55	7.19
OC[C@@H]1[C@@H](O)[C@H](O)[C@@H](O)CN1Cc1ccc(CNc2ccc(-c3ccc[nH]3)cc2)cc1 [Compound 1094, (2R,3R,4R,5S)-2-(hydroxymethyl)-1-{[4-({[4-(1H-pyrrol-2-yl)phenyl]amino}methyl)phenyl]methyl}piperidine-3,4,5-triol]	4.91	7.72	7.24	6.61	6.75
OC[C@@H]1[C@@H](O)[C@H](O)[C@@H](O)CN1CCc1cn(CCNc2ccccc2)c2ccccc12 [Compound 1076, (2R,3R,4R,5S)-2-(hydroxymethyl)-1-(2-{1-[2-(phenylamino)ethyl]-1H-indol-3-yl}ethyl)piperidine-3,4,5-triol]	5.11	6.60	6.07	5.37	7.18
COc1cc(Br)cc(NCCn2cc(CCN3C[C@H](O)[C@@H](O)[C@H](O)[C@H]3CO)c3ccccc32)c1 [Compound 1075, (2R,3R,4R,5S)-1-[2-(1-{2-[(3-bromo-5-methoxyphenyl)amino]ethyl}-1H-indol-3-yl)ethyl]-2-(hydroxymethyl)piperidine-3,4,5-triol]	5.60	6.62	6.14	5.43	6.82
[N-]=[N+]=Nc1ccc(NCC[C@H]2CC[C@@H](CCN3C[C@H](O)[C@@H](O)[C@H](O)[C@H]3CO)CC2)c([N+](=O)[O-])c1 [Compound 1106, (2R,3R,4R,5S)-2-(hydroxymethyl)-1-{2-[(1s,4s)-4-{2-[(4-azido-2-nitrophenyl)amino]ethyl}cyclohexyl]ethyl}piperidine-3,4,5-triol]	5.16	7.51	8.22	7.44	8.05
O=[N+]([O-])c1cc(C2=COCCO2)ccc1NCc1cccc(CN2C[C@H](O)[C@@H](O)[C@H](O)[C@H]2CO)c1 [Compound 1087, (2R,3R,4R,5S)-1-{[3-({[4-(5,6-dihydro-1,4-dioxin-2-yl)-2-nitro-phenyl]amino}methyl)phenyl]methyl}-2-(hydroxymethyl)piperidine-3,4,5-triol]	< 4.00	8.40	> 9.00	6.26	5.09
O=[N+]([O-])c1cc(-c2ccc[nH]2)ccc1NCc1ccc(CN2C[C@H](O)[C@@H](O)[C@H](O)[C@H]2CO)cc1 [Compound 1100, (2R,3R,4R,5S)-2-(hydroxymethyl)-1-{[4-({[2-nitro-4-(1H-pyrrol-2-yl)phenyl]amino}methyl)phenyl]methyl}piperidine-3,4,5-triol]	4.38	> 9.00	8.70	6.79	> 9.00
N#Cc1cc(NCc2cccc(CN3C[C@H](O)[C@@H](O)[C@H](O)[C@H]3CO)c2)cc(-c2ncccn2)c1 [Compound 1047, 3-(pyrimidin-2-yl)-5-{[(3-{[(2R,3R,4R,5S)-3,4,5-trihydroxy-2-(hydroxymethyl)piperidin-1-yl]methyl}phenyl)methyl]amino}benzonitrile]	4.06	> 9.00	7.96	5.83	4.89
